Measured values taken from patent US10413529B2, “Methods of inhibiting cataracts and presbyopia” (UNIVERSITY OF MASSACHUSETTS, priority 2013, dated 2019).
One block for each molecule: values may come before it.

Columns and labels:
[1] = target: T1, γD-crystallin (Homo sapiens, UniProt P07320); test: Dynamic light scattering (DLS) of γD-crystallin, hydrodynamic radius of monomer and aggregate; assay type: biochemical; settings: for Rhf / Rhs: γD; for Rhf: fast mode; for Rh: γD modified with the agent
T1 construct: 6xHis (N); made in house; host or cells: M15pRep E. coli (pQe1 plasmid from King Labs, MIT)
T1 sequence (P07320 1-174): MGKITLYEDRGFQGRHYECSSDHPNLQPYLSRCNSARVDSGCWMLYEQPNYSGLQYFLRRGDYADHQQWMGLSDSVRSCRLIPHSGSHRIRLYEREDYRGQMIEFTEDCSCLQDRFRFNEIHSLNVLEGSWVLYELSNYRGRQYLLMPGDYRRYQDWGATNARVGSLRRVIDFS
Procedure: (§1) The scattering wave vector is defined as q=4πn sin (θ/2)/λ, where θ is the scattering angle, and λ=514.5, the wavelength of the argon laser in vacuum, and n is 1.33, the refractive index of water. The temperature of the sample was held at constant temperature of 4 to 37±0.1° C. by a circulating water bath. The correlation function was analyzed using CONTIN analysis [NT] times for the correlation functions at measured angles. […] The delay times (τ) were converted to Γ and graphed versus q^2. The slope of the fitted line is the diffusion coefficient (D). […] All solutions were filtered with 0.22 μm hydrophobic PVDF membranes (Fisher Scientific) into 10 mm diameter borosilicate glass tubes and sealed. Solutions were allowed to equilibrate for thirty minutes prior to measuring light scattering. […] The pH and salt concentration were adjusted via overnight dialysis at 4° C. and their final concentration adjusted to 1.0 g/L. […] The scattering wave vector is defined as q=4πn sin (θ/2)/λ, where θ is the scattering angle, and λ=514.5, the wavelength of the argon laser in vacuum, and n is 1.33, the refractive index of water. The temperature of the sample was held at constant temperature of 4 to 37±0.1° C. by a circulating water bath. The correlation function was analyzed using CONTIN analysis [NT] times for the correlation functions at measured angles. […] The delay times (τ) were converted to Γ and graphed versus q^2. The slope of the fitted line is the diffusion coefficient (D). […] All solutions were filtered with 0.22 μm hydrophobic PVDF membranes (Fisher Scientific) into 10 mm diameter borosilicate glass tubes and sealed. Solutions were allowed to equilibrate for thirty minutes prior to measuring light scattering.

[2] = target: T2, γS-crystallin (Homo sapiens, UniProt P22914); test: Dynamic light scattering (DLS) of γS-crystallin, hydrodynamic radius of monomer and aggregate; assay type: biochemical; settings: for Rhf / Rhs: γS; for Rhf: fast mode; for Rh: γS modified with the agent
T2 construct: 6xHis (N); made in house; host or cells: M15pRep E. coli (pQe1 plasmid from King Labs, MIT)
T2 sequence (P22914 1-178): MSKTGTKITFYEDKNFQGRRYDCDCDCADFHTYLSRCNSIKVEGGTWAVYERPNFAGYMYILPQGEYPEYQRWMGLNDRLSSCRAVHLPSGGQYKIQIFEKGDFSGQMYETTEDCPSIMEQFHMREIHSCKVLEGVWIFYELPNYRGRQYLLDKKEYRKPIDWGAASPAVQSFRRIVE
Procedure: as §1

[3] = system: γ-crystallin; test: DLS, aggregation of γ-crystallin (stated for γD and γS together); assay type: biochemical; settings: for aggregation of γ-crystallin modified with the agent (DLS): dilute solution, 22° and 37° C.; for effect on the large γ-crystallin aggregate: α-crystallin mixed with γD- or γS-crystallin, molar ratio 3:1, one hour at 4° C.
Procedure: (§2) Scattering intensity was measured at angles between 30° and 90° at 5° intervals, corresponding to a scattering wave vector (q) range between 8.41×10^6 and 2.30×10^7 m^−1. The scattering wave vector is defined as q=4πn sin (θ/2)/λ, where θ is the scattering angle, and λ=514.5, the wavelength of the argon laser in vacuum, and n is 1.33, the refractive index of water. The temperature of the sample was held at constant temperature of 4 to 37±0.1° C. by a circulating water bath.
(§3) The correlation function was analyzed using CONTIN analysis to calculate lag times for the correlation functions at measured angles. The peaks represent the diffusive mode of the proteins. The delay times (τ) were converted to Γ and graphed versus q^2. The slope of the fitted line is the diffusion coefficient (D). The lines are fitted such that the intercept is zero because a non-zero value of q=0 is unphysical. The Γ versus q^2 plots were linear with r^2 values of 0.95 or greater.
(§4) All solutions were filtered with 0.22 μm hydrophobic PVDF membranes (Fisher Scientific) into 10 mm diameter borosilicate glass tubes and sealed. Solutions were allowed to equilibrate for thirty minutes prior to measuring light scattering.
γ-crystallins were subjected to a variety of experimental conditions, including a range of pHs (5, 6, 7, 8, 9, 10, 11), concentrations of KCl (100 mM, 150 mM, 300 mM, 500 mM, 1000 mM) and temperature (4.5° C., 22° C., 37° C.). The pH and salt concentration were adjusted via overnight dialysis at 4° C. and their final concentration adjusted to 1.0 g/L.
It had been hypothesized that disulfide bonds might mediate the observed γ-crystallin aggregates. The DLS of the γ-crystallin proteins was also measured in 5 mM DTT, and in the presence of 1.0 g/L α-crystallin. […] Thus, this hypothesis was incorrect.
Further, the synthesized α-crystallin proteins were mixed with γ-crystallin proteins to determine if the chaperoning ability of α-crystallin disrupts the γ-crystallin aggregates. The α-A and α-B crystallins were each individually mixed with γD- or γS-crystallin in a molar ratio of 3:1, respectively, mimicking the ratio found in the human eye lens. All solutions were allowed to equilibrate for an hour at 4° C.

[4] = system: γ-crystallin; test: Circular dichroism of modified γ-crystallin (secondary structure); assay type: biochemical; settings: 0.5 mg/mL, 22° C., versus native protein
Procedure: Crystallin samples were dialyzed overnight into 10 mM Na2HPO4/NaH2PO4 buffer pH 6.8 and measured at a concentration of 0.5 mg/mL. CD spectra were measured on a Jasco J715 spectropolarimeter at 22° C. using a quartz cell of 1 mm path length.

[5] = DLS of individual α-crystallin solutions (size in dilute solution); assay type: physicochemical; settings: individual protein solution
Procedure: as §2, §3, §4
Individual solutions of α-A, α-B, γD- and γ-S crystallin proteins were investigated to understand the size scale and how the proteins behave in dilute solution. (Table 1) Temperature had little effect on protein size in solution as measured by DLS.

[6] = slow mode (aggregate), 100 mM NaCl
[7] = slow mode (aggregate), 150 mM NaCl
[8] = slow mode (aggregate), 300 mM NaCl
[9] = fast mode (monomer, first Rh column), 22° C.
[10] = α-crystallin additive, molar ratio 3:1, one hour at 4° C.
[11] = slow mode, α-crystallin additive, molar ratio 3:1, one hour at 4° C.

Molecule: [Cl-].[Na+] [NaCl]
- Rhf ([1]; 100 mM NaCl): 2.8 nm
- Rhf ([1]; 150 mM NaCl): 2.8 nm
- Rhf ([1]; 300 mM NaCl): 2.6 nm
- Rhf ([1]; 400 mM NaCl): 2.7 nm
- Rhf ([1]; 500 mM NaCl): 2.8 nm
- Rhf ([1]; 1000 mM NaCl): 2.5 nm
- Rhs [1, 6]: 108 nm
- Rhs [1, 7]: 104 nm
- Rhs [1, 8]: 91 nm
- Rhf ([2]; 100 mM NaCl): 2.7 nm
- Rhf ([2]; 150 mM NaCl): 2.7 nm
- Rhf ([2]; 300 mM NaCl): 2.9 nm
- Rhf ([2]; 400 mM NaCl): 2.6 nm
- Rhf ([2]; 500 mM NaCl): 2.5 nm
- Rhf ([2]; 1000 mM NaCl): 2.6 nm
- Rhs [2, 6]: 104 nm
- Rhs [2, 7]: 102 nm
- Rhs [2, 8]: 100 nm

Molecule: Biotin
- aggregation of γ-crystallin modified with the agent (DLS) [3]: resulted in aggregation
- Rh ([1]; fast mode (monomer), 37° C.): 2.7 nm
- Rh [1, 9]: 2.8 nm
- Rh ([1]; slow mode (aggregate), 22° C.): 150 nm
- Rh ([1]; slow mode (aggregate), 37° C.): 170 nm
- Rh ([2]; fast mode (monomer), 37° C.): 2.8 nm
- Rh [2, 9]: 2.6 nm
- Rh ([2]; slow mode (aggregate), 22° C.): 180 nm
- Rh ([2]; slow mode (aggregate), 37° C.): 210 nm
- secondary structure of modified γ-crystallin (CD spectra) [4]: showed a sizeable shift upwards as compared with the native structure of the protein

Molecule: [Cl-].[K+] [KCl]
- aggregate formation ([3]; KCl concentrations 400 to 1000 mM): aggregate formation was effectively inhibited
- reduction in the size of γ-crystallin aggregates ([3]; KCl concentrations of less than 300 nM (so in the source)): did not provide a reduction in the size of γ-crystallin aggregates
- reduction of γ-crystallin aggregates ([3]; salt concentrations over 300 mm KCl (so in the source)): did reduce γ-crystallin aggregates to individual protein particles

Molecule: αA: αA-crystallin, heat shock protein and molecular chaperone, 19.9 kDa
- effect on the large γ-crystallin aggregate [3]: the large γ-crystallin aggregate of several hundred nanometers disappeared
- Rh ([5]; 4°): 12 nm
- Rh ([5]; 22°): 12 nm
- Rh ([5]; 37°): 13 nm

Continued, in another order:

- Rh ([1]; fast mode (monomer), 37° C.): 2.9 nm
- Rh [1, 9]: 2.8 nm
- Rh ([2]; fast mode (monomer), 37° C.): 2.9 nm
- Rh [2, 9]: 2.9 nm
Molecule: PEG4
- aggregation of γ-crystallin modified with the agent (DLS) [3]: showed no aggregation
- secondary structure of modified γ-crystallin (CD spectra) [4]: did not significantly affect the secondary structures

- Rhf [1, 10]: 3.2 nm
- Rhs [1, 11]: 17 nm
- Rhf [2, 10]: 3 nm
- Rhs [2, 11]: 19 nm
Molecule: αB: αB-crystallin, heat shock protein and molecular chaperone, 20.16 kDa
- effect on the large γ-crystallin aggregate [3]: the large γ-crystallin aggregate of several hundred nanometers disappeared
- Rh ([5]; 4°): 12 nm
- Rh ([5]; 22°): 13 nm
- Rh ([5]; 37°): 13 nm

- Rhf ([1]; additive 5 mM DTT): 2.6 nm
- Rhs ([1]; slow mode, additive 5 mM DTT): 108 nm
- Rhf ([2]; additive 5 mM DTT): 3 nm
- Rhs ([2]; slow mode, additive 5 mM DTT): 102 nm
Molecule: O[C@@H](CS)[C@@H](O)CS [DTT, reference compound]
- effect on the size of the γ-crystallin aggregates ([3]; 5 mM DTT): had no effect on the size of the γ-crystallin aggregates

- Rh ([1]; fast mode (monomer), 37° C.): 2.6 nm
- Rh [1, 9]: 2.5 nm
- Rh ([1]; slow mode (aggregate), 22° C.): 82.5 nm
- Rh ([1]; slow mode (aggregate), 37° C.): 85 nm
- Rh ([2]; fast mode (monomer), 37° C.): 2.5 nm
- Rh [2, 9]: 2.5 nm
- Rh ([2]; slow mode (aggregate), 22° C.): 92.5 nm
- Rh ([2]; slow mode (aggregate), 37° C.): 90 nm
Molecule: CC(=O)O.O=C1CC(S(=O)(=O)O)C(=O)N1O (stereo not shown) [SA, sulfo-N-hydroxysuccinimide acetate]
- aggregation of γ-crystallin modified with the agent (DLS) [3]: did not prevent aggregation
- secondary structure of modified γ-crystallin (CD spectra) [4]: smaller well around 220 nm as compared to the native
